From ChEMBL document CHEMBL1150095, “Antitumor activity and stereochemistry of acetylenic alcohols from the sponge Cribrochalina vasculum” (1995)

Tests used:
Format in all cases: functional
[1] = system: A498; assay: Antitumor activity against human A498 cells
[2] = system: MDA-MB-231; assay: Antitumor activity against human MDA-MB-231 cells
[3] = system: SK-OV-3; assay: Antitumor activity against human SKOV3 cells
[4] = system: U-251; assay: Antitumor activity against human U251 cells
[5] = system: SK-MEL-28; assay: Antitumor activity against human SK-MEL-28 cells
[6] = system: 786-0; assay: Antitumor activity against human 786-0 cells
[7] = system: KM12; assay: Antitumor activity against human KM12 cells
[8] = system: SK-MEL-5; assay: Antitumor activity against human SK-MEL-5 cells
[9] = system: HCC 2998; assay: Antitumor activity against human HCC2998 cells
[10] = Antitumor activity against human MCF7/ADR cells; conditions: NCI/ADR-RES
[11] = system: HOP-62; assay: Antitumor activity against human HOP62 cells
[12] = system: HCT-116; assay: Antitumor activity against human HCT116 cells
[13] = system: OVCAR-4; assay: Antitumor activity against human OVCAR4 cells
[14] = system: ACHN; assay: Antitumor activity against human ACHN cells
[15] = system: CCRF-CEM; assay: Antitumor activity against human CCRF-CEM cells
[16] = system: HT-29; assay: Antitumor activity against human HT-29 cells
[17] = system: EKVX; assay: Antitumor activity against human EKVX cells
[18] = system: NCI-H522; assay: Antitumor activity against human NCI-H522 cells
[19] = system: SN12C; assay: Antitumor activity against human SN12C cells
[20] = system: BT-549; assay: Antitumor activity against human BT549 cells
[21] = system: NCI-H23; assay: Antitumor activity against human NCI-H23 cells
[22] = system: HL-60(TB); assay: Antitumor activity against human HL-60(TB) cells
[23] = system: M14; assay: Antitumor activity against human M14 cells
[24] = system: MDA-MB-435; assay: Antitumor activity against human MDA-MB-435 cells
[25] = system: UACC-257; assay: Antitumor activity against human UACC257 cells
[26] = system: HOP-92; assay: Antitumor activity against human HOP92 cells
[27] = system: OVCAR-8; assay: Antitumor activity against human OVCAR8 cells
[28] = system: SNB-75; assay: Antitumor activity against human SNB75 cells
[29] = system: COLO 205; assay: Antitumor activity against human COLO205 cells
[30] = system: T47D; assay: Antitumor activity against human T47D cells
[31] = system: A549; assay: Antitumor activity against human A549 cells
[32] = system: SF-268; assay: Antitumor activity against human SF268 cells
[33] = system: IGROV-1; assay: Antitumor activity against human IGROV1 cells
[34] = system: MDA-N; assay: Antitumor activity against human MDA-N cells
[35] = system: CAKI-1; assay: Antitumor activity against human Caki1 cells
[36] = system: SW-620; assay: Antitumor activity against human SW620 cells
[37] = system: HCT-15; assay: Antitumor activity against human HCT15 cells
[38] = system: OVCAR-3; assay: Antitumor activity against human OVCAR-3 cells
[39] = system: K562; assay: Antitumor activity against human K562 cells
[40] = Antitumor activity against human Hs 578T cells
[41] = Antitumor activity against human […] cells
[42] = system: UACC-62; assay: Antitumor activity against human UACC62 cells
[43] = system: RXF 393; assay: Antitumor activity against human RXF393 cells
[44] = system: SF-539; assay: Antitumor activity against human SF539 cells
[45] = system: PC-3; assay: Antitumor activity against human PC3 cells
[46] = system: DU-145; assay: Antitumor activity against human DU145 cells
[47] = system: Malme-3M; assay: Antitumor activity against human MALME-3M cells
[48] = system: SNB-19; assay: Antitumor activity against human SNB19 cells
[49] = system: NCI-H460; assay: Antitumor activity against human NCI-H460 cells
[50] = system: OVCAR-5; assay: Antitumor activity against human OVCAR5 cells
[51] = system: TK-10; assay: Antitumor activity against human TK10 cells
[52] = system: SK-MEL-2; assay: Antitumor activity against human SK-MEL-2 cells
[53] = system: UO-31; assay: Antitumor activity against human UO31 cells
[54] = system: NCI-H322M; assay: Antitumor activity against human NCI-H322M cells
[55] = system: SF-295; assay: Antitumor activity against human SF295 cells
[56] = system: SR; assay: Antitumor activity against human SR cells
[57] = system: NCI-H226; assay: Antitumor activity against human NCI-H226 cells
[58] = system: MCF7; assay: Antitumor activity against human MCF7 cells
[59] = system: MOLT-4; assay: Antitumor activity against human MOLT4 cells
[60] = read-out: pLC50 (the source's name) (converted)

C#C[C@@H](O)/C=C/CCCCCCCCC/C=C\CCCCCC
GI50 [1]: 58.9 nM
CC50 [1, 60]: 155 nM
TGI ([1]; read-out: pTGI (converted)): 95.5 nM
GI50 [2]: 47.9 nM
CC50 [2, 60]: 145 nM
TGI ([2]; read-out: pTGI (converted)): 83.2 nM
GI50 [3]: 61.7 nM
CC50 [3, 60]: 158 nM
TGI ([3]; read-out: pTGI (converted)): 100 nM
GI50 [4]: 40.7 nM
CC50 [4, 60]: 138 nM
TGI ([4]; read-out: pTGI (converted)): 74.1 nM
GI50 [5]: 41.7 nM
CC50 [5, 60]: 138 nM
TGI ([5]; read-out: pTGI (converted)): 75.9 nM
GI50 [6]: 42.7 nM
CC50 [6, 60]: 138 nM
TGI ([6]; read-out: pTGI (converted)): 77.6 nM
GI50 [7]: 37.1 nM
CC50 [7, 60]: 132 nM
TGI ([7]; read-out: pTGI): 70.8 nM
GI50 [8]: 32.4 nM
CC50 [8, 60]: 129 nM
TGI ([8]; read-out: pTGI (converted)): 64.6 nM
GI50 [9]: 43.6 nM
CC50 [9, 60]: 141 nM
TGI ([9]; read-out: pTGI (converted)): 79.4 nM
GI50 [10]: 38 nM
CC50 [10, 60]: 138 nM
TGI ([10]; read-out: pTGI (converted)): 72.4 nM
GI50 [11]: 52.5 nM
CC50 [11, 60]: 151 nM
TGI ([11]; read-out: pTGI (converted)): 89.1 nM
GI50 [12]: 25.1 nM
CC50 [12, 60]: 117 nM
TGI ([12]; read-out: pTGI (converted)): 55 nM
GI50 [13]: 18.6 nM
CC50 [13, 60]: 112 nM
TGI ([13]; read-out: pTGI (converted)): 51.3 nM
GI50 [14]: 45.7 nM
CC50 [14, 60]: 141 nM
TGI ([14]; read-out: pTGI (converted)): 79.4 nM
GI50 [15]: 0.631 nM
CC50 [15, 60]: 61.7 nM
TGI ([15]; read-out: pTGI (converted)): 1.55 nM
GI50 [16]: 30.9 nM
CC50 [16, 60]: 138 nM
TGI ([16]; read-out: pTGI (converted)): 66.1 nM
GI50 [17]: 46.8 nM
CC50 [17, 60]: 145 nM
TGI ([17]; read-out: pTGI (converted)): 81.3 nM
GI50 [18]: 0.115 nM
LC50 [18]: 1.18 nM
TGI ([18]; read-out: pTGI (converted)): 0.436 nM
GI50 [19]: 28.8 nM
CC50 [19, 60]: 123 nM
TGI ([19]; read-out: pTGI (converted)): 58.9 nM
GI50 [20]: 38.9 nM
CC50 [20, 60]: 135 nM
TGI ([20]; read-out: pTGI (converted)): 72.4 nM
GI50 [21]: 13.5 nM
CC50 [21, 60]: 110 nM
TGI ([21]; read-out: pTGI (converted)): 45.7 nM
GI50 [22]: 10.2 nM
CC50 [22, 60]: 129 nM
TGI ([22]; read-out: pTGI (converted)): 36.3 nM
GI50 [23]: 8.32 nM
CC50 [23, 60]: 100 nM
TGI ([23]; read-out: pTGI (converted)): 39.8 nM
GI50 [24]: 26.9 nM
CC50 [24, 60]: 126 nM
TGI ([24]; read-out: pTGI (converted)): 57.5 nM
GI50 [25]: 32.4 nM
CC50 [25, 60]: 126 nM
TGI ([25]; read-out: pTGI (converted)): 64.6 nM
GI50 [26]: 46.8 nM
CC50 [26, 60]: 145 nM
TGI ([26]; read-out: pTGI (converted)): 83.2 nM
GI50 [27]: 37.1 nM
CC50 [27, 60]: 132 nM
TGI ([27]; read-out: pTGI): 70.8 nM
GI50 [28]: 12.3 nM
CC50 [28, 60]: 107 nM
TGI ([28]; read-out: pTGI (converted)): 43.6 nM
GI50 [29]: 43.6 nM
CC50 [29, 60]: 141 nM
TGI ([29]; read-out: pTGI (converted)): 79.4 nM
GI50 [30]: 6.31 nM
CC50 [30, 60]: 115 nM
TGI ([30]; read-out: pTGI (converted)): 42.7 nM
GI50 [31]: 45.7 nM
CC50 [31, 60]: 148 nM
TGI ([31]; read-out: pTGI (converted)): 83.2 nM
GI50 [32]: 38.9 nM
CC50 [32, 60]: 138 nM
TGI ([32]; read-out: pTGI (converted)): 74.1 nM
GI50 [33]: 0.562 nM
CC50 [33, 60]: 2.19 nM
TGI ([33]; read-out: pTGI (converted)): 1.12 nM
GI50 [34]: 25.1 nM
CC50 [34, 60]: 115 nM
TGI ([34]; read-out: pTGI (converted)): 53.7 nM
GI50 [35]: 52.5 nM
CC50 [35, 60]: 162 nM
TGI ([35]; read-out: pTGI (converted)): 91.2 nM
GI50 [36]: 9.33 nM
CC50 [36, 60]: 112 nM
TGI ([36]; read-out: pTGI (converted)): 42.7 nM
GI50 [37]: 36.3 nM
CC50 [37, 60]: 132 nM
TGI ([37]; read-out: pTGI (converted)): 69.2 nM
GI50 [38]: 49 nM
CC50 [38, 60]: 145 nM
TGI ([38]; read-out: pTGI (converted)): 85.1 nM
GI50 [39]: 30.9 nM
CC50 [39, 60]: 155 nM
TGI ([39]; read-out: pTGI (converted)): 69.2 nM
GI50 [40]: 44.7 nM
CC50 [40, 60]: 170 nM
TGI ([40]; read-out: pTGI (converted)): 87.1 nM
GI50 [41]: 6.76 nM
CC50 [41, 60]: 129 nM
TGI ([41]; read-out: pTGI (converted)): 18.6 nM
GI50 [42]: 38.9 nM
CC50 [42, 60]: 135 nM
TGI ([42]; read-out: pTGI (converted)): 72.4 nM
GI50 [43]: 33.1 nM
CC50 [43, 60]: 132 nM
TGI ([43]; read-out: pTGI (converted)): 66.1 nM
GI50 [44]: 44.7 nM
CC50 [44, 60]: 141 nM
TGI ([44]; read-out: pTGI (converted)): 79.4 nM
GI50 [45]: 39.8 nM
CC50 [45, 60]: 138 nM
TGI ([45]; read-out: pTGI (converted)): 74.1 nM
GI50 [46]: 47.9 nM
CC50 [46, 60]: 145 nM
TGI ([46]; read-out: pTGI (converted)): 83.2 nM
GI50 [47]: 6.31 nM
CC50 [47, 60]: 72.4 nM
TGI ([47]; read-out: pTGI (converted)): 20.4 nM
GI50 [48]: 52.5 nM
CC50 [48, 60]: 151 nM
TGI ([48]; read-out: pTGI (converted)): 89.1 nM
GI50 [49]: 42.7 nM
CC50 [49, 60]: 151 nM
TGI ([49]; read-out: pTGI (converted)): 79.4 nM
GI50 [50]: 46.8 nM
CC50 [50, 60]: 145 nM
TGI ([50]; read-out: pTGI (converted)): 81.3 nM
GI50 [51]: 60.3 nM
CC50 [51, 60]: 155 nM
TGI ([51]; read-out: pTGI (converted)): 97.7 nM
GI50 [52]: 8.13 nM
CC50 [52, 60]: 83.2 nM
TGI ([52]; read-out: pTGI (converted)): 23.4 nM
GI50 [53]: 52.5 nM
CC50 [53, 60]: 151 nM
TGI ([53]; read-out: pTGI (converted)): 89.1 nM
GI50 [54]: 53.7 nM
CC50 [54, 60]: 151 nM
TGI ([54]; read-out: pTGI (converted)): 91.2 nM
GI50 [55]: 44.7 nM
CC50 [55, 60]: 145 nM
TGI ([55]; read-out: pTGI (converted)): 79.4 nM
GI50 [56]: 15.5 nM
CC50 [56, 60]: 174 nM
TGI ([56]; read-out: pTGI (converted)): 55 nM
GI50 [57]: 30.2 nM
CC50 [57, 60]: 129 nM
TGI ([57]; read-out: pTGI (converted)): 61.7 nM
GI50 [58]: 13.8 nM
CC50 [58, 60]: 123 nM
TGI ([58]; read-out: pTGI (converted)): 47.9 nM
GI50 [59]: 6.46 nM
CC50 [59, 60]: 126 nM
TGI ([59]; read-out: pTGI (converted)): 26.9 nM
